The numbers were not newly measured in patent publication US20110039930A1 (Emisphere Technologies, Inc., priority 2009, published 2011), which cites them from elsewhere.

For this data set the following is noted: bleeding, ulceration, perforation of the stomach or intestines.

`COc1ccc2cc(C(C)C(=O)O)ccc2c1` (stereo not shown) [Naproxen, 2-(6-methoxynaphthalen-2-yl)propanoic acid]: the gastrointestinal adverse events result is on record as “increased risk of serious gastrointestinal adverse events”.
